Patent US20110306671A1, “AMIDE DERIVATIVES OF ETHACRYNIC ACID” (The Regents of the The University of California, priority 2008, published 2011)
Where “and” joins values, the source holds several entries; their conditions need not be identical. Equal values may be shown once.

Columns and labels:
LEF-1/β-catenin complex = target: T1, LEF-1/β-catenin complex (Homo sapiens, UniProt Q9UJU2); test: Co-immunoprecipitation of the β-catenin complex in SW480 cells; format: cell-based; conditions: increasing EA, 16 hours
T1 construct: endogenous in cells; host or cells: SW480 cells
T1 sequence (Q9UJU2 whole entry, one chain of several): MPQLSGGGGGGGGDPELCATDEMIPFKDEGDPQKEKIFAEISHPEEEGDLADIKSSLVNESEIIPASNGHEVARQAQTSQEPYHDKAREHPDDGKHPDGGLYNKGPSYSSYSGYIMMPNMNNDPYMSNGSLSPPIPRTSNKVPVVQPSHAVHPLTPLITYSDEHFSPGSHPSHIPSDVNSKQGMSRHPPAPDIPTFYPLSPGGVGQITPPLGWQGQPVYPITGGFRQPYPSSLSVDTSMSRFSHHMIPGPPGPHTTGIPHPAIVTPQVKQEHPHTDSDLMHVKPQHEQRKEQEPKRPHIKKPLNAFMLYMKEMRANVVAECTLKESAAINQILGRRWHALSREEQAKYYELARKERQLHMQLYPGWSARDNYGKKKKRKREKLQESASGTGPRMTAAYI
Procedure: FIG. 7. EA destabilizes the LEF-1/β-catenin complex. (A) SW480 cells were treated with increasing amounts of EA for 16 hours. Cells were lysed, and IP was completed with anti-β-catenin monoclonal antibody. The immune complexes were analyzed by immunoblotting with anti-LEF-1, anti-α-catenin and anti-β-catenin antibodies. (B) EA inhibits Wnt/β-catenin signaling in SW480 cells. SW480 cells were transfected with TOPflash reporter and control plasmid pCMXβgal. After transfection for 24 hours, cells were treated with increasing concentrations of EA for another 24 hours as indicated. Cells were then harvested and luciferase values were determined. The results are expressed as relative luciferase activity (%) normalized to a β-galactosidase control.
Primary CLL cells and SW480 cells were treated with the indicated amounts of EA. Cells were washed twice with PBS and resuspended in 0.5 mL lysis buffer (20 mM Tris-HCl, pH 8.0/10% glycerol/5 mM MgCl2/0.15 M KCl/0.1% Nonidet P-40 with protease inhibitors). For CLL cells, lysates of 1 to 2×10^7 cells were incubated with anti-LEF-1 antibody at a 1:1000 dilution overnight at 4° C., and then with saturating amounts of protein G plus/protein A agarose beads (Calbiochem) at 4° C. for 2 hours before centrifugation at 15,000 g for 5 minutes. […]

HCT116 = test: Cytotoxicity of EA in tumor cell line HCT116; format: cell-based; conditions: Homo sapiens, HCT-116, mean of at least two experiments
B16 = test: Cytotoxicity of EA in tumor cell line B16; format: cell-based; conditions: Mus musculus, mean of at least two experiments
[1] = continuous i.v. infusion, cited from earlier work
LEF-1 = target: T2, LEF-1 (Homo sapiens, UniProt Q9UJU2); test: Immunoprecipitation and immunoblotting with anti-EA antibody: LEF-1; format: binding
T2 construct: endogenous in cells; host or cells: primary CLL cells from patients; SW480 cells
T2 sequence (Q9UJU2 whole entry): as the sequence (Q9UJU2 whole entry, one chain of several) above
Procedure: (§1) FIG. 6. EA binds to LEF-1 in primary CLL and SW480 cells. (A) lysates from CLL cells exposed to 10 μM EA for 8 hours or 24 hours were immunoprecipitated with anti-LEF-1 antibody. The immune complexes were analyzed by immunoblotting with anti-LEF-1 and anti-EA antibodies. (B) SW480 cells were treated with indicated amounts of EA for 16 hours. Cell lysates were immunoprecipitated with anti-β-catenin antibody (Santa Cruz Biotechnology, Santa Cruz, Calif.). The immune complexes were analyzed by immunoblotting with anti-EA and anti-β-catenin antibodies. (C) SW480 cells were exposed to 50 μM of EA for 16 hours and cell lysates were immunoprecipitated with anti-β-catenin antibody. The proteins in the immunoprecipitates were resolved by SDS-PAGE, transferred, and probed with indicated antibodies.
(§2) A conjugate of EA with Keyhole Limpet Hemocyanin (KLH, Sigma) was prepared by thiolation of KLH with N-succinimidyl S-acetylthioacetate (SATA), followed by allowing the SATA-KLH conjugate to form a Michael adduct with EA, as described in Hermanson (1996). Immunization of rabbits was performed by three 1 mL subcutaneous injections of approximately 0.4 mg EA-KLH conjugates. Complete Freund's adjuvant was used for the first injection. The second and third injections were performed 3 and 6 weeks after the first, using incomplete adjuvant. […]

[2] = tested on: different tumor cell lines; test: Cytotoxicity of EA in different tumor cell lines (summary); format: cell-based; conditions: read-out: mean 50% inhibitory concentration (IC50) of EA in these cell lines; range over the tumor cell lines of Table 3
[3] = tested on: Wnt3a-induced transcription; test: Stable Super8XTOPflash reporter HEK293 cells stimulated with Wnt3a; format: cell-based, human
Procedure: FIG. 1. Inhibition of Wnt/β-catenin signaling by EA. […] Cells were lysed and luciferase activity was quantified. Total protein levels were determined by Bradford Assay and serve as a control for total cell number. (B) HEK293 cells were co-transfected with TOPflash reporter construct, along with expression plasmids for Wnt1, Wnt3, LRP6, Dvl and β-catenin as indicated. […] (C) HEK293 cells were transfected with FOPflash reporter with or without an expression plasmid for β-catenin. […] (D) HEK293 cells were transfected with NFAT reporter and expression plasmid for NFATc. […] The results are expressed as fold induction of luciferase activity compared to the basal level, and are the means of three experiments±SEM. The Super8XTOPflash construct (kindly provided by Dr. R. Moon) was stably transfected into HEK293 cells, and single cell clones were isolated. […] (2003) and Willert et al. (2008).

SK-Mel-28 = test: Cytotoxicity of EA in tumor cell line SK-Mel-28; format: cell-based; conditions: Homo sapiens, mean of at least two experiments
β-catenin = target: T3, β-catenin (Homo sapiens, UniProt P35222); test: Immunoprecipitation and immunoblotting with anti-EA antibody: β-catenin; format: binding
T3 construct: endogenous in cells
T3 sequence (P35222 whole entry): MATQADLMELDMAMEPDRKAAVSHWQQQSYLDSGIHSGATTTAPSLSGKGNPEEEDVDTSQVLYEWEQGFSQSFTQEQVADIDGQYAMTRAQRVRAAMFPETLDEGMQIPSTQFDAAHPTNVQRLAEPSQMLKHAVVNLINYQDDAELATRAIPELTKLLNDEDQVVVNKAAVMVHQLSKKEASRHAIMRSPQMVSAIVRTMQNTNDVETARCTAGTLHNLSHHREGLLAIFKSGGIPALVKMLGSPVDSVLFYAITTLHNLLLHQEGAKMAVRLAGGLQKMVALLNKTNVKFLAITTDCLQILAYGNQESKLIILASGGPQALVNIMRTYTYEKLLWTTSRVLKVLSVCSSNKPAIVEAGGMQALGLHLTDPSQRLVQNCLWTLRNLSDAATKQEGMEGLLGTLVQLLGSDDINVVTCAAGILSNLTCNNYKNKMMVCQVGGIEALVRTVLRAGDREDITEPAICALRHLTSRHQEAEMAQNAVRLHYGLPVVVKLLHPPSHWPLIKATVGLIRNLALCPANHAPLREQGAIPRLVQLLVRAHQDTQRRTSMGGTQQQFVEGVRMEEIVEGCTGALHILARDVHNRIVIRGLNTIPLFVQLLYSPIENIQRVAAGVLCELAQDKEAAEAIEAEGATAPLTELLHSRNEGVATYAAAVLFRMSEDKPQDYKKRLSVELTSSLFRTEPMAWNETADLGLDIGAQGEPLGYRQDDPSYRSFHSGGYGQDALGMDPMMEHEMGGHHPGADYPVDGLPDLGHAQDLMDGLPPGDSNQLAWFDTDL
Procedure: as §1, §2

Wnt signaling = test: CellSensor LEF/TCF-bla SW480 cell-based assay (Wnt signaling inhibition); design: species or system human; conditions: Homo sapiens; LEF/TCF-bla SW480 cells, 20 hours
Procedure: To determine the specificity of compounds on Wnt/[…]-catenin pathway inhibition, CellSensor LEF/TCF-bla SW480 cell-based assay (Invitrogen, Carlsbad, Calif.) was used according to the supplier's instructions, but modified for a 96 well format. Cells were plated at 25,000 cells/well in assay medium in 96-well black plates with clear bottom (Corning) the day prior to compound treatment.

α-catenin levels in the β-catenin complex (LEF-1/β-catenin complex): little effect
IC50 ([3]; Homo sapiens, HEK293, read-out: IC50 for inhibition of Wnt3A-induced transcription): ~25 µM
binding to β-catenin (β-catenin; CLL extracts, data not shown): did not bind detectably
IC50 (Wnt signaling): 32.7 µM
SMILES: C=C(CC)C(=O)c1ccc(OCC(=O)O)c(Cl)c1Cl [Compound 1, Ethacrynic acid]
LEF-1 levels in the β-catenin complex (LEF-1/β-catenin complex): decreased LEF-1 levels in the β-catenin complex in a concentration-dependent manner
IC50 (HCT116): 58 µM
IC50 (B16): 201 µM
time for which plasma concentrations are sustained ([1]; above 1 μg/ml): up to 3 hours
sustained plasma concentrations ([1]; listed as EA): greater than 1 μg/ml and > 3.3 μM
reaction of immunoprecipitated LEF-1 with anti-EA antibody (LEF-1; CLL lysates, EA 10 μM, 8 hours and 24 hours): reacted strongly with the anti-EA antibody
staining of the LEF-1 band with anti-EA antibody (LEF-1; SW480 cells, 50 μM EA, 16 hours, anti-β-catenin immunoprecipitate): stained positive with the anti-EA antibody only in the drug treated samples
IC50 [2]: 40 to 200 µM
effect on Wnt3a-induced transcription of the SuperTOPflash reporter ([3]; Wnt3a 10 nM, EA 20-35 μM, 18 hours): blocked Wnt3a-induced transcription in a dose-dependent manner
IC50 (SK-Mel-28): 122 µM
detection of precipitated β-catenin by anti-EA antibody (β-catenin; SW480 cells, 16 hours): could not be detected by anti-EA antibody
